{"source": "patent US7297700B2", "about": "“Bicycloheteroaryl compounds as P2X7 modulators and uses thereof” (Renovis, Inc., priority 2005, dated 2007)", "data": [{"test_system": "IL-1β release from THP-1 cells", "test": "IL-1β Release Assay (Alternate Method), THP-1 cells", "type": "cell-based, human", "conditions": "Homo sapiens; at 0.3 μM; THP-1 cells; read-out: IL-1β % inhibition", "outline": "(§1)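 THP-1 cells differentiated 16 h with 100 ng/mL LPS plus 100 ng/mL IFN-γ, reprimed 2 h with 100 ng/mL LPS, pretreated 30 min with compound, then challenged 45 min with 250 uM BzATP (final). Supernatant IL-1β quantified by ELISA; percent inhibition from background-adjusted levels versus untreated cells.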", "units": {"inhibition at 0.3 µM": "%"}, "values": [{"smiles": "Cc1ncc2c(c1C(=O)NCC13CC4CC(CC(C4)C1)C3)CCN(Cc1ccccc1)C2", "note": "[Compound 368, 7-Benzyl-3-methyl-5,6,7,8-tetrahydro-[2,7]naphthyridine-4carboxylic acid (adamantan-1-ylmethyl)-amide]", "inhibition at 0.3 µM": "0 to 25"}, {"smiles": "CC12CC3CC(C)(C1)CC(CC(=O)Nc1ncnc4c1CCN(Cc1ccccc1)C4)(C3)C2", "note": "[Compound 341, N-(7-Benzyl-5,6,7,8-tetrahydro-pyrido[3,4-d]pyrimidin-4-yl)-2-(3,5-dimethyl-adamantan-1-yl)-acetamide]", "inhibition at 0.3 µM": "25 to 50"}, {"smiles": "O=C(c1ccccc1)N1CCc2c(ncnc2NC(=O)C23CC4CC(CC(C4)C2)C3)C1", "note": "[Compound 394]", "inhibition at 0.3 µM": "25 to 50"}]}, {"test_system": "IL-1β release from THP-1 cells", "test": "IL-1β Release Assay (Alternate Method), THP-1 cells", "type": "cell-based, human", "conditions": "at 0.3 μM; THP-1 cells", "outline": "as §1", "values": [{"smiles": "O=C(CC12CC3CC(CC(C3)C1)C2)Nc1ncnc2c1CCN(Cc1cccc(OC(F)(F)F)c1)C2", "note": "[Compound 114]", "IL-1β % inhibition": "+ (compound exhibited 0-25% inhibition at 0.3 μM)"}, {"smiles": "O=C(CC12CC3CC(CC(C3)C1)C2)Nc1ncnc2c1CCN(Cc1ccc(OC(F)(F)F)cc1)C2", "note": "[Compound 74]", "IL-1β % inhibition": "+ (compound exhibited 0-25% inhibition at 0.3 μM)"}, {"smiles": "CC(C)(C(=O)Nc1ncnc2c1CCN(C(=O)c1cccc(Cl)c1Cl)C2)C12CC3CC(CC(C3)C1)C2", "note": "[Compound 364]", "IL-1β % inhibition": "+ (compound exhibited 0-25% inhibition at 0.3 μM)"}, {"smiles": "Cc1ccc(CN2CCc3c(ncnc3C(=O)NCC3CCCCC3)C2)cc1", "note": "[Compound 55]", "IL-1β % inhibition": "+ (compound exhibited 0-25% inhibition at 0.3 μM)"}, {"smiles": "O=C(CC12CC3CC(CC(C3)C1)C2)Nc1ncnc2c1CCN(CCc1ccccc1)C2", "note": "[Compound 14]", "IL-1β % inhibition": "+ (compound exhibited 0-25% inhibition at 0.3 μM)"}, {"smiles": "Cc1cc(C(=O)N2CCc3c(ncnc3NC(=O)CC34CC5CC(CC(C5)C3)C4)C2)n(C)n1", "note": "[Compound 285]", "IL-1β % inhibition": "+ (compound exhibited 0-25% inhibition at 0.3 μM)"}, {"smiles": "O=C(CC12CC3CC(CC(C3)C1)C2)Nc1ncnc2c1CCN(S(=O)(=O)Cc1ccc(Cl)c(Cl)c1)C2", "note": "[Compound 185]", "IL-1β % inhibition": "++ (compound exhibited 25-50% inhibition at 0.3 μM)"}, {"smiles": "O=C(NCC12CC3CC(CC(C3)C1)C2)c1ncnc2c1CCN(Cc1ccccc1F)C2", "note": "[Compound 139]", "IL-1β % inhibition": "++ (compound exhibited 25-50% inhibition at 0.3 μM)"}, {"smiles": "O=C(CC12CC3CC(CC(C3)C1)C2)Nc1ncnc2c1CCN(C(=O)CCC1CCCC1)C2", "note": "[Compound 231]", "IL-1β % inhibition": "++ (compound exhibited 25-50% inhibition at 0.3 μM)"}, {"smiles": "O=C(CC1CCCCCC1)Nc1ncnc2c1CCNC2", "note": "[Compound 12]", "IL-1β % inhibition": "+ (compound exhibited 0-25% inhibition at 0.3 μM)"}, {"smiles": "CC(C)(C(=O)Nc1ncnc2c1CCN(C(=O)c1c(F)cccc1Cl)C2)C12CC3CC(CC(C3)C1)C2", "note": "[Compound 362]", "IL-1β % inhibition": "+ (compound exhibited 0-25% inhibition at 0.3 μM)"}, {"smiles": "COc1ccc(CN2CCc3c(ncnc3NC(=O)CC34CC5CC(CC(C5)C3)C4)C2)cc1C", "note": "[Compound 39]", "IL-1β % inhibition": "+ (compound exhibited 0-25% inhibition at 0.3 μM)"}, {"smiles": "O=C(CC12CC3CC(CC(C3)C1)C2)Nc1ncnc2c1CCN(Cc1ccc(F)c(F)c1)C2", "note": "[Compound 322]", "IL-1β % inhibition": "+ (compound exhibited 0-25% inhibition at 0.3 μM)"}, {"smiles": "CCc1ccc(CN2CCc3c(ncnc3NC(=O)CC34CC5CC(CC(C5)C3)C4)C2)cc1", "note": "[Compound 45]", "IL-1β % inhibition": "+ (compound exhibited 0-25% inhibition at 0.3 μM)"}, {"smiles": "O=C(CC12CC3CC(CC(C3)C1)C2)Nc1ncnc2c1CCN(Cc1ccc3c(c1)OCCCO3)C2", "note": "[Compound 333]", "IL-1β % inhibition": "+++ (compound exhibited 50-75% inhibition at 0.3 μM)"}, {"smiles": "COc1ccc(CN2CCc3c(ncnc3NC(=O)CC34CC5CC(CC(C5)C3)C4)C2)cc1Cl", "note": "[Compound 324]", "IL-1β % inhibition": "+ (compound exhibited 0-25% inhibition at 0.3 μM)"}, {"smiles": "O=C(CC12CC3CC(CC(C3)C1)C2)Nc1ncnc2c1CCN(Cc1ccc(F)cc1C(F)(F)F)C2", "note": "[Compound 107]", "IL-1β % inhibition": "+ (compound exhibited 0-25% inhibition at 0.3 μM)"}, {"smiles": "O=C(CC12CC3CC(CC(C3)C1)C2)Nc1ncnc2c1CCN(Cc1ccc(C(F)(F)F)cc1C(F)(F)F)C2", "note": "[Compound 327]", "IL-1β % inhibition": "+ (compound exhibited 0-25% inhibition at 0.3 μM)"}, {"smiles": "COc1ccc(CN2CCc3c(ncnc3C(=O)NCC3CCCCC3)C2)cc1", "note": "[Compound 54]", "IL-1β % inhibition": "+ (compound exhibited 0-25% inhibition at 0.3 μM)"}, {"smiles": "O=C(CC12CC3CC(CC(C3)C1)C2)Nc1ncnc2c1CCN(S(=O)(=O)c1cc(Cl)ccc1Cl)C2", "note": "[Compound 204]", "IL-1β % inhibition": "+ (compound exhibited 0-25% inhibition at 0.3 μM)"}, {"smiles": "COc1ccccc1CCC(=O)Nc1ncnc2c1CCN(Cc1ccncc1)C2", "note": "[Compound 133]", "IL-1β % inhibition": "+ (compound exhibited 0-25% inhibition at 0.3 μM)"}, {"smiles": "Cc1cccc(CN2CCc3c(ncnc3NC(=O)CC34CC5CC(CC(C5)C3)C4)C2)c1", "note": "[Compound 38]", "IL-1β % inhibition": "+ (compound exhibited 0-25% inhibition at 0.3 μM)"}, {"smiles": "O=C(CC12CC3CC(CC(C3)C1)C2)Nc1ncnc2c1CCN(Cc1cccc(C(F)(F)F)c1)C2", "note": "[Compound 70]", "IL-1β % inhibition": "+ (compound exhibited 0-25% inhibition at 0.3 μM)"}, {"smiles": "Cc1nn(-c2ccccc2)nc1C(=O)N1CCc2c(ncnc2NC(=O)CC23CC4CC(CC(C4)C2)C3)C1", "note": "[Compound 273]", "IL-1β % inhibition": "++++ (compound exhibited 75% or greater inhibition at 0.3 μM)"}, {"smiles": "CCCCc1nc(CN2CCc3c(ncnc3NC(=O)CC34CC5CC(CC(C5)C3)C4)C2)c[nH]1", "note": "[Compound 80]", "IL-1β % inhibition": "++ (compound exhibited 25-50% inhibition at 0.3 μM)"}, {"smiles": "CC12CC3CC(C)(C1)CC(CC(=O)Nc1ncnc4c1CCN(C(=O)c1c(F)cccc1Cl)C4)(C3)C2", "note": "[Compound 389]", "IL-1β % inhibition": "++ (compound exhibited 25-50% inhibition at 0.3 μM)"}, {"smiles": "CN(CCO)c1ccc(CN2CCc3c(ncnc3NC(=O)CC34CC5CC(CC(C5)C3)C4)C2)cc1", "note": "[Compound 89]", "IL-1β % inhibition": "+ (compound exhibited 0-25% inhibition at 0.3 μM)"}, {"smiles": "CS(=O)(=O)N1CCc2c(ncnc2NC(=O)CC23CC4CC(CC(C4)C2)C3)C1", "note": "[Compound 142]", "IL-1β % inhibition": "+++ (compound exhibited 50-75% inhibition at 0.3 μM)"}, {"smiles": "CC12CC3CC(C)(C1)CC(CC(=O)Nc1ncnc4c1CCN(C(=O)c1cccc(Cl)c1Cl)C4)(C3)C2", "note": "[Compound 391]", "IL-1β % inhibition": "+ (compound exhibited 0-25% inhibition at 0.3 μM)"}, {"smiles": "COc1cccc(CC(=O)N2CCc3c(ncnc3NC(=O)CC34CC5CC(CC(C5)C3)C4)C2)c1", "note": "[Compound 261]", "IL-1β % inhibition": "+ (compound exhibited 0-25% inhibition at 0.3 μM)"}, {"smiles": "O=C(CC12CC3CC(CC(C3)C1)C2)Nc1ncnc2c1CCN(S(=O)(=O)Cc1cc(C(F)(F)F)cc(C(F)(F)F)c1)C2", "note": "[Compound 182]", "IL-1β % inhibition": "+++ (compound exhibited 50-75% inhibition at 0.3 μM)"}, {"smiles": "COc1ccccc1CCC(=O)Nc1ncnc2c1CCN(Cc1ccccn1)C2", "note": "[Compound 134]", "IL-1β % inhibition": "+ (compound exhibited 0-25% inhibition at 0.3 μM)"}, {"smiles": "CC(C)(C)c1ccc(CN2CCc3c(ncnc3NC(=O)CC34CC5CC(CC(C5)C3)C4)C2)cc1", "note": "[Compound 71]", "IL-1β % inhibition": "+ (compound exhibited 0-25% inhibition at 0.3 μM)"}, {"smiles": "COc1ccccc1CCC(=O)Nc1ncnc2c1CCNC2", "note": "[Compound 25]", "IL-1β % inhibition": "+ (compound exhibited 0-25% inhibition at 0.3 μM)"}]}, {"test_system": "IL-1β release from THP-1 cells", "test": "IL-1β Release Assay (Alternate Method), THP-1 cells", "type": "cell-based, human", "conditions": "at 0.3 μM; THP-1 cells, BzATP-stimulated", "outline": "as §1", "values": [{"smiles": "O=C(Nc1ncnc2c1CCN(S(=O)(=O)c1ccc(Cl)cc1F)C2)C12CC3CC(CC(C3)C1)C2", "note": "[Compound 536]", "IL-1β % inhibition": "++ (compound exhibited 25-50% inhibition at 0.3 μM)"}, {"smiles": "O=C(Nc1ncnc2c1CCN(Cc1ccc(OC(F)(F)F)cc1)C2)C12CC3CC(CC(C3)C1)C2", "note": "[Compound 620]", "IL-1β % inhibition": "++ (compound exhibited 25-50% inhibition at 0.3 μM)"}, {"smiles": "O=C(Nc1ncnc2c1CCN(S(=O)(=O)c1ccc(C(F)(F)F)cc1)C2)C12CC3CC(CC(C3)C1)C2", "note": "[Compound 535]", "IL-1β % inhibition": "++ (compound exhibited 25-50% inhibition at 0.3 μM)"}, {"smiles": "COc1ccc(-c2ccc(S(=O)(=O)N3CCc4c(ncnc4NC(=O)C45CC6CC(CC(C6)C4)C5)C3)cc2)cc1", "note": "[Compound 512]", "IL-1β % inhibition": "++ (compound exhibited 25-50% inhibition at 0.3 μM)"}, {"smiles": "COc1ccc(S(=O)(=O)N2CCc3c(ncnc3NC(=O)C34CC5CC(CC(C5)C3)C4)C2)cc1OC", "note": "[Compound 489]", "IL-1β % inhibition": "+++ (compound exhibited 50-75% inhibition at 0.3 μM)"}, {"smiles": "COc1cc(CN2CCc3c(ncnc3NC(=O)C34CC5CC(CC(C5)C3)C4)C2)cc(OC)c1", "note": "[Compound 633]", "IL-1β % inhibition": "+ (compound exhibited 0-25% inhibition at 0.3 μM)"}, {"smiles": "CCCS(=O)(=O)N1CCc2c(ncnc2NC(=O)C23CC4CC(CC(C4)C2)C3)C1", "note": "[Compound 485]", "IL-1β % inhibition": "+ (compound exhibited 0-25% inhibition at 0.3 μM)"}, {"smiles": "O=C(Nc1ncnc2c1CCN(CC1CCCC1)C2)C12CC3CC(CC(C3)C1)C2", "note": "[Compound 619]", "IL-1β % inhibition": "+ (compound exhibited 0-25% inhibition at 0.3 μM)"}, {"smiles": "COc1ccc(C(=O)N2CCc3c(ncnc3NC(=O)C34CC5CC(CC(C5)C3)C4)C2)cc1F", "note": "[Compound 475]", "IL-1β % inhibition": "++ (compound exhibited 25-50% inhibition at 0.3 μM)"}, {"smiles": "O=C(c1c(F)cccc1F)N1CCc2c(ncnc2NC(=O)C23CC4CC(CC(C4)C2)C3)C1", "note": "[Compound 419]", "IL-1β % inhibition": "+ (compound exhibited 0-25% inhibition at 0.3 μM)"}, {"smiles": "COc1cccc(S(=O)(=O)N2CCc3c(ncnc3NC(=O)C34CC5CC(CC(C5)C3)C4)C2)c1", "note": "[Compound 498]", "IL-1β % inhibition": "+ (compound exhibited 0-25% inhibition at 0.3 μM)"}, {"smiles": "O=C(c1ccc(C(F)(F)F)cc1)N1CCc2c(ncnc2NC(=O)C23CC4CC(CC(C4)C2)C3)C1", "note": "[Compound 415]", "IL-1β % inhibition": "+ (compound exhibited 0-25% inhibition at 0.3 μM)"}, {"smiles": "O=C(Nc1ncnc2c1CCN(S(=O)(=O)c1ccc(Oc3ccc(C(F)(F)F)cc3)cc1)C2)C12CC3CC(CC(C3)C1)C2", "note": "[Compound 510]", "IL-1β % inhibition": "++++ (compound exhibited 75% or greater inhibition at 0.3 μM)"}, {"smiles": "COc1ccc(S(=O)(=O)N2CCc3c(ncnc3NC(=O)C34CC5CC(CC(C5)C3)C4)C2)cc1", "note": "[Compound 487]", "IL-1β % inhibition": "++ (compound exhibited 25-50% inhibition at 0.3 μM)"}, {"smiles": "O=C(Nc1ncnc2c1CCN(Cc1ccc(F)cc1)C2)C12CC3CC(CC(C3)C1)C2", "note": "[Compound 607]", "IL-1β % inhibition": "++++ (compound exhibited 75% or greater inhibition at 0.3 μM)"}, {"smiles": "O=C(Nc1ncnc2c1CCN(S(=O)(=O)Cc1cccc(C(F)(F)F)c1)C2)C12CC3CC(CC(C3)C1)C2", "note": "[Compound 520]", "IL-1β % inhibition": "++ (compound exhibited 25-50% inhibition at 0.3 μM)"}]}]}
